# Assay results: paper PMC7561186, “Rational design of balanced dual-targeting antibiotics with limited resistance” (PLoS Biology, 2020)
# “And” between values parts separate entries of the source, which are not always exact repeats. Identical values can stand only once. Like-named read-outs stand apart in the source and are kept apart here.
# Columns and labels:
# Clostridium difficile = assay: MIC, broth microdilution (CLSI); type: cell-based
# Procedure: (§1) MICs were determined using a standard serial broth microdilution technique according to the CLSI guidelines. Briefly, bacterial strains were inoculated onto MHBII agar plates and were grown overnight at 37 °C. Next, 3 individual colonies from each strain were inoculated into 1 mL MHBII medium and propagated at 37 °C, 250 rpm overnight. In the cases of Enterococcus and Streptococcus sp., cells were plated to BHI agar plates, and BHI broth was used to determine MICs. […] Following dilutions, each well was seeded with 5×10^4 bacterial cells. All measurements were performed in 3 parallel replicates and to avoid possible edge effects in microwell plates, side rows (A and H) were filled with sterile medium. Following inoculations, plates were covered with lids and wrapped in polyethylene plastic bags to minimize evaporation but allow for O2 transfer. Plates were incubated at 37 °C under continuous shaking at 150 rpm for 18 hours. After incubation, OD600 of each well was measured using a BioTek Synergy 2 microplate reader.
# Enterococcus faecalis = assay: MIC, broth microdilution (CLSI); type: cell-based
# Procedure: as §1
# Escherichia coli = assay: MIC, broth microdilution (CLSI); type: cell-based; conditions: Escherichia coli ATCC 25922
# Procedure: as §1
# Haemophilus influenzae = assay: MIC, broth microdilution (CLSI); type: cell-based
# Procedure: as §1
# Helicobacter pylori = assay: MIC, broth microdilution (CLSI); type: cell-based; conditions: Helicobacter pylori ATCC 43504
# Procedure: as §1
# Klebsiella pneumoniae = assay: MIC, broth microdilution (CLSI); type: cell-based; conditions: Klebsiella pneumoniae ATCC 10031
# Procedure: as §1
# Listeria monocytogenes = assay: MIC, broth microdilution (CLSI); type: cell-based; conditions: Listeria monocytogenes ATCC 19111
# Procedure: as §1
# Neisseria gonorrhoeae = assay: MIC, broth microdilution (CLSI); type: cell-based
# Procedure: as §1
# Pseudomonas aeruginosa = assay: MIC, broth microdilution (CLSI); type: cell-based
# Procedure: as §1
# Shigella flexneri = assay: MIC, broth microdilution (CLSI); type: cell-based
# Procedure: as §1
# Staphylococcus aureus = assay: MIC, broth microdilution (CLSI); type: cell-based
# Procedure: as §1
# Streptococcus pneumoniae = assay: MIC, broth microdilution (CLSI); type: cell-based
# Procedure: as §1
# Streptococcus pyogenes = assay: MIC, broth microdilution (CLSI); type: cell-based
# Procedure: as §1
# [1] = system: S. aureus ATCC 700699 VISA; assay: Time-dependent killing; type: cell-based; conditions: for Time-kill bacterial count: 10xMIC; for Colony numbers: time-kill raw counts, Samples 1-3
# [2] = system: S. aureus ATCC 700699 and S. aureus ATCC 43300; assay: Spontaneous frequency-of-resistance assay; type: cell-based
# Procedure: Prior to plating, bacteria were grown overnight in MHBII medium at 37 °C, 250 rpm, collected by centrifugation, and washed once in equal volumes of MHBII broth. From this concentrated cell suspension (250 μL), approximately 10^10 cells were then plated to each MHBII agarose plates. […] All experiments were performed in at least 3 replicates. Plates were grown at 37 °C for 72 hours. Total CFUs were determined simultaneously in each experiment by plating appropriate dilutions to antibiotic-free MHBII agar plates. Finally, resistance frequencies for each strain were calculated by dividing the number of colonies formed after a 72-hour incubation at 37 °C by the initial viable cell count.
# [3] = system: novobiocin-resistant S. aureus VISA ATCC 700699 mutants; assay: MIC against novobiocin-resistant (novobiocin-adapted) strains; type: cell-based; conditions: for MIC: Staphylococcus aureus
# Procedure: as §1
# HepG2 cells = conditions: LDH assay
# Procedure: Cytotoxicity of compounds on HepG2 and MCF-7 mammalian cell lines was determined by using a standard LDH assay. Briefly, HepG2 and MCF-7 cells were cultured in Eagle’s MEM medium (from Gibco) supplemented with 2 mM L-glutamine (Sigma), 100 U/mL penicillin (Sigma), and 100 μg/mL streptomycin (Sigma), and 10% FBS (Gibco) at 37 °C and under 5% CO2. Next, LDH assays were performed according to manufacturer instructions (Thermo Fisher Scientific, Massachusetts, USA). By using a CyQUANT LDH Cytotoxicity Assay Kit. Firstly, the cells were seeded in 96-well microtiter plates at 10^5 cells/mL (100 μL/well) and allowed to attach overnight. […] Lysis buffer (10 μL, Thermo Fisher Scientific) was then added to the maximal LDH activity control wells and incubated additional 45 minutes. The cell culture supernatant (50 μL) was then transferred to a new 96-well plate and mixed with 50 μL of the reaction mixture. After 30 minutes on room temperature, reactions were stopped with 50 μL of the Stop solution. Absorbance (490 nm and 680 nm) was measured with the automatic microplate reader Synergy 4 Hybrid Microplate Reader (BioTek, VT, USA). All experiments were performed in triplicates and repeated 3 times. Statistical significance (P < 0.05) was calculated with 2-tailed Welch’s t-test between treated groups and DMSO. The percentage of cytotoxicity was determined according to the following equation: %Cytotoxicity=(CompoundtreatedLDHactivity-SpontaneousLDHactivity/MaximumLDHactivity-SpontaneousLDHactivity)*100
smiles,measurement,setting,value
Cc1[nH]c(C(=O)Nc2nc3ccc(C(=O)O)cc3s2)c(Cl)c1Cl [ULD1],MIC,"Clostridium difficile; Clostridioides difficile, BAA1875",≤ 0.0312 µg/mL
same,MIC,Clostridium difficile; Clostridium difficile BAA-1875,< 0.0312 µg/mL
same,MIC,Enterococcus faecalis; Enterococcus faecalis ATCC 29212,0.125 µg/mL
same,MIC,"Enterococcus faecalis; Enterococcus faecalis ATCC 51575, VRE (VanB+)",0.0625 µg/mL
same,MIC,Escherichia coli,4 µg/mL
same,MIC,"Haemophilus influenzae; ATCC49247, Haemophilus influenzae ATCC 49247",≤ 0.0312 µg/mL
same,MIC,Haemophilus influenzae; Haemophilus influenzae ATCC 35056,0.125 µg/mL
same,MIC,Haemophilus influenzae; Haemophilus influenzae ATCC 49247,< 0.0312 µg/mL
same,MIC,Helicobacter pylori,4 µg/mL
same,MIC,Klebsiella pneumoniae; ATCC10031,1 µg/mL
same,MIC,Klebsiella pneumoniae,1 µg/mL
same,MIC,Listeria monocytogenes; ATCC19111,0.125 µg/mL
same,MIC,Listeria monocytogenes,0.125 µg/mL
same,MIC,"Neisseria gonorrhoeae; CCUG57598, Neisseria gonorrhoeae CCUG 57598",≤ 0.0312 µg/mL
same,MIC,Neisseria gonorrhoeae; Neisseria gonorrhoeae ATCC 700825,< 0.0312 µg/mL
same,MIC,Neisseria gonorrhoeae; Neisseria gonorrhoeae CCUG 57598,< 0.0312 µg/mL
same,MIC,"Pseudomonas aeruginosa; ATCC27853, Pseudomonas aeruginosa ATCC 27853",8 µg/mL
same,MIC,Pseudomonas aeruginosa; Pseudomonas aeruginosa ATCC 27853,8 µg/mL
same,MIC,"Pseudomonas aeruginosa; Pseudomonas aeruginosa B3-1811, Ciprofloxacin-R, Cephalosporin-R",> 64 µg/mL
same,MIC,Shigella flexneri; Shigella flexneri 668,16 µg/mL
same,MIC,Shigella flexneri; Shigella flexneri HNCMB 20018,8 µg/mL
same,MIC,"Staphylococcus aureus; Staphylococcus aureus (strain not given), MRSA (SCCmec type IV), Oxacillin-R, VSSA, Cephalosporin-R, Erythromycin-R",1 µg/mL
same,MIC,Staphylococcus aureus; Staphylococcus aureus ATCC 29213,1 µg/mL
same,MIC,"Staphylococcus aureus; Staphylococcus aureus ATCC 33594, MSSA, VSSA",0.5 µg/mL
same,MIC,"Staphylococcus aureus; Staphylococcus aureus ATCC 43300, MRSA",0.125 µg/mL
same,MIC,"Staphylococcus aureus; Staphylococcus aureus ATCC 700699 (Mu50, NRS1), MRSA, VISA",0.0625 µg/mL
same,MIC,"Staphylococcus aureus; Staphylococcus aureus CDC AR-BANK 0218, MRSA, VISA",1 µg/mL
same,MIC,"Staphylococcus aureus; Staphylococcus aureus ECL 2963646, MRSA, VRSA",0.125 µg/mL
same,MIC,"Staphylococcus aureus; Staphylococcus aureus NRS271, MRSA, Linezolid-R",1 µg/mL
same,MIC,"Staphylococcus aureus; Staphylococcus aureus USA300, ATCC BAA-1717, MRSA",0.5 µg/mL
same,MIC,"Staphylococcus aureus; Staphylococcus aureus USA400, BAA-1707, NRS123, MRSA",0.5 µg/mL
same,MIC,"Staphylococcus aureus; Staphylococcus aureus, ATCC 700699 / MRSA / NRS 1 / VISA, S. aureus ATCC 700699 (Mu50, NRS1), MRSA, VISA",0.0625 µg/mL
same,MIC,"Staphylococcus aureus; Staphylococcus aureus, S. aureus ECL 2963646, MRSA, VRSA",0.125 µg/mL
same,MIC,Streptococcus pneumoniae; Streptococcus pneumoniae ATCC 49619,0.25 µg/mL
same,MIC,Streptococcus pneumoniae; Streptococcus pneumoniae ATCC 51916,0.5 µg/mL
same,MIC,Streptococcus pneumoniae; Streptococcus pneumoniae ATCC 700673,0.5 µg/mL
same,MIC,Streptococcus pyogenes; Streptococcus pyogenes ATCC 14289,0.25 µg/mL
same,MIC,Streptococcus pyogenes; Streptococcus pyogenes ATCC 19615,0.125 µg/mL
same,Time-kill bacterial count,[1]; time 0 hour,2.80E+05
same,Time-kill bacterial count,[1]; time 3 hour,9.80E+04
same,Time-kill bacterial count,[1]; time 6 hour,6.30E+04
same,Time-kill bacterial count,[1]; time 12 hour,4.90E+03
same,Time-kill bacterial count,[1]; time 18 hour,1.70E+03
same,Time-kill bacterial count,[1]; time 24 hour,8.50E+02
same,Time-kill bacterial count,[1]; time 48 hour,1.60E+02
same,cell killing (bactericidal) activity,"[1]; 10× MIC, S. aureus ATCC 700699 (VISA), in words",exceed that of fusidic acid
same,Colony numbers,"[1]; time 0 h, Dilution 100",145 and 132 and 137
same,Colony numbers,"[1]; time 3 h, Dilution 100",54 and 53 and 40
same,Colony numbers,"[1]; time 6 h, Dilution 100",38 and 20 and 36
same,Colony numbers,"[1]; time 12 h, Dilution 10",20 and 23 and 31
same,Colony numbers,"[1]; time 18 h, Dilution 1",83 and 63 and 113
same,Colony numbers,"[1]; time 24 h, Dilution 0.5",65 and 80 and 110
same,mutant prevention concentration (MPC),"[2]; S. aureus ATCC 700699 (VISA), estimate",0.16 µg/mL
same,Spontaneous frequency-of-resistance (replicates),"[2]; Staphylococcus aureus (MRSA) ATCC 43300, 2xMIC",2e-9 and 2.769e-9 and 5.333e-10 and 1.1e-9 and 1.263e-9 and 2.587e-9 and 2.787e-9 and 2.50E-09 and 3.14E-09 and 4.80E-09
same,Spontaneous frequency-of-resistance (replicates),"[2]; Staphylococcus aureus (MRSA) ATCC 43300, 4xMIC",9.286e-10 and 7.692e-10 and 1.333e-10 and 5e-10 and 9.868e-10 and 1.045e-9 and 7.377e-10 and 1.30E-09 and 9.54E-10 and 1.09E-08 and 7.14E-11
same,Spontaneous frequency-of-resistance (replicates),"[2]; Staphylococcus aureus (MRSA) ATCC 43300, 8xMIC",1.00E-12
same,Spontaneous frequency-of-resistance (replicates),"[2]; Staphylococcus aureus (VISA) ATCC 700699, 2xMIC",2.06e-9 and 1.815e-9 and 2.326e-9 and 1.86e-9 and 1.40E-09 and 7.33E-10 and 2.00E-09 and 1.64E-09 and 3.594e-9 and 2.426e-9
same,Spontaneous frequency-of-resistance (replicates),"[2]; Staphylococcus aureus (VISA) ATCC 700699, 4xMIC",1.00E-12 and 3.109e-10 and 2.252e-10 and 3.243e-10 and 3.9801e-10 and 2.304e-10 and 2.871e-10 and 1.676e-10
same,Spontaneous frequency-of-resistance (replicates),"[2]; Staphylococcus aureus (VISA) ATCC 700699, 8xMIC",1.00E-12
same,resistant variants detected,"[2]; exposure at 8-fold the wild-type MIC, S. aureus, in words",no resistant variants of S. aureus have been detected
same,decrease in susceptibility compared with wild-type strain,[3]; 9 independently evolved novobiocin-resistant isolates,up to 6 fold
same,MIC,"[3]; WT S. aureus VISA ATCC 700699, read-out: MIC",0.04 µg/mL
same,MIC,[3]; novobiocin-adapted Evolved 1,0.016 µg/mL
same,MIC,[3]; novobiocin-adapted Evolved 2,0.125 µg/mL
same,MIC,[3]; novobiocin-adapted Evolved 3,0.016 µg/mL
same,MIC,[3]; novobiocin-adapted Evolved 4,0.25 µg/mL
same,MIC,[3]; novobiocin-adapted Evolved 5,0.063 µg/mL
same,MIC,[3]; novobiocin-adapted Evolved 6,0.063 µg/mL
same,MIC,[3]; novobiocin-adapted Evolved 7,0.125 µg/mL
same,MIC,[3]; novobiocin-adapted Evolved 8,0.125 µg/mL
same,MIC,[3]; novobiocin-adapted Evolved 9,0.016 µg/mL
same,Max. % inhibition at 100 µM,HepG2 cells,Max. % inhibition at 100 µM: 1.53%
